Results from patent publication US5977435A, “Plant phosphatases” (Performance Plants, Inc., priority 1997, dated 1999).
Counter-ions that a name gives are not always drawn. Like-named read-outs stand apart in the source and are kept apart here.

How the values were obtained:
potato phosphatase [1] = target: T1, potato phosphatase (Solanum tuberosum, UniProt Q6J5M8); assay: biochemical; type: biochemical; set-up: mature chain from Thr30, C-terminus not determined
T1 sequence (Q6J5M8 with tags, fused parts or gaps V118I/E238V/S277N/V282G/E319A/A394T/S415A/T416I/D418E/I426Y/H428S/N437A): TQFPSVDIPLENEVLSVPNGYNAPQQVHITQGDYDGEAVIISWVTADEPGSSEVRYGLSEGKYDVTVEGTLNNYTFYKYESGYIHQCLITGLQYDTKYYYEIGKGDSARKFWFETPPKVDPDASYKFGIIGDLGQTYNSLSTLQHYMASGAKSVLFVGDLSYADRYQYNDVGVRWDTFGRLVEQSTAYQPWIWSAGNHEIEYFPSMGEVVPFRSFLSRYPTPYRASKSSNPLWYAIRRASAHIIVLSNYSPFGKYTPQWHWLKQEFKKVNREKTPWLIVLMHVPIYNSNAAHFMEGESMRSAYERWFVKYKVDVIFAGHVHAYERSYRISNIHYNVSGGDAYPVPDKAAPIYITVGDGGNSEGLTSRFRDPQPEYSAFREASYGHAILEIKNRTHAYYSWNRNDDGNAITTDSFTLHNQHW
Method: Enzyme activity in the presence of effectors is expressed relative to the control set at 100%.
(§1) Assays were initiated by the addition of enzyme preparation. One unit of phosphatase activity is defined as the quantity of enzyme that would catalyze the hydrolysis of 1 […] of substrate/min at 25° C.

potato phosphatase [2] = target: T1, potato phosphatase; assay: biochemical; type: biochemical; set-up: mature chain from Thr30, C-terminus not determined; conditions: for activation of the phosphatase: 4 mM, added as Cl- salt, Ca, Co, Mn with no added Mg2+
Method: Unless otherwise stated all kinetic studies of the potato phosphatase were performed with PEP using assay A (infra).
The phosphatase was activated approximately 40% in the presence of saturating (4 mM) Mg^2+ (added as MgCl2). Ca^2+, Co^2+, and Mn^2+ were individually tested as Cl^- salts at 4 mM, with no added Mg^2+, and found to uniformly activate the enzyme by about 30%. […]. […] All subsequent kinetic studies were conducted in the presence of 4 mM MgCl2.
as §1

potato phosphatase [3] = target: T1, potato phosphatase; assay: Phosphatase assay B, substrate specificity; conditions: for Vmax: pH 5.8, 25° C; for activity of purified enzyme with compound as substrate: tested at 5 mM
Method: Phosphatase activity was determined using assay B and a wide range of compounds, tested at a total concentration of 5 mM unless otherwise specified.
Phosphatase (0.05 units) was incubated in 1.5 mL cuvettes with 0.9 mL of 50 mM MES-NaOH (pH 5.8) containing 4 mM MgCl2 and an alternative substrate (5 mM unless otherwise indicated) for 6 min at 25° C. Reactions were terminated by the sequential addition of 0.1 mL reagent A (3 M H2 SO4 containing 20 mM ammonium molybdate) and […] of 1% (v/v) Triton X-100. Samples were incubated at 25° C. for 20 min and the A660 was determined. To calculate activities, a standard curve over the range of […] Pi was constructed for each set of assays. Assays were performed in triplicate and controls were run for background amounts of Pi present at each substrate concentration by adding reagent A before the enzyme.

[4] = test system: potato tuber phosphotyrosyl proteins; assay: Dephosphorylation of potato tuber phosphotyrosyl proteins by potato tuber phosphatase; type: biochemical, Solanum tuberosum; conditions: 1 mM present during incubation
Method: A desalted potato tuber extract was incubated at 25° C. in the absence (-) and presence (+) of 30 units/mL purified potato tuber phosphatase. Aliquots were removed at 2 and 19 h and analyzed by immunoblotting using anti-(P-Tyr) IgG (Kamps and Sefton, 1988). The relative P-Tyr content of the 7 antigenic polypeptides was estimated by laser densitometric quantification of the immunoblots as described in the examples. Unless otherwise noted, all values represent the means±SE of triplicate determinations. ^a, the mean of duplicate determinations.
Electroblotting was performed by the method of Moorhead and Plaxton (1990), with the addition of […] o-vanadate to the transfer buffer when maintenance of phosphotyrosyl residues was desired. All immunoblots to be probed with the anti-(black mustard PEP-specific phosphatase) IgG (Duff et al, 1991a) were first pre-treated with sodium m-periodate according to Laine (1988) so as to oxidize antigenic oligosaccharide chains of endogenous tuber glycoproteins. Immunological detection of phosphotyrosylated tuber proteins using anti-(P-Tyr) IgG (Kamps and Sefton, 1988) was performed as referenced above except that the blocking buffer contained 5% (w/v) bovine serum albumin (fraction V) and 1% (w/v) ovalbumin instead of 3% (w/v) defatted milk powder.
Antigenic polypeptides were visualized using an alkaline-phosphatase-taggedsecondary antibody (Moorhead and Plaxton, 1990). Immunological specificities were confirmed by performing immunoblots in which rabbit preimmune serum was substituted for the affinity-purified IgGs. An LKB Ultroscan XL Enhanced Laser Densitometer was used to scan indicated immunoblots. Densitometric data were analysed using the LKB Gelscan XL software (version 2.1). Immunoreactive polypeptides were quantified in terms of their relative absorbance at 633 nm wavelength (A633).
Peeled and diced potato tuber tissue (5 g) was homogenized with a Polytron in 1 volume of 100 mM MES-NaOH (pH 5.8) containing 2 mM PMSF, 2 mM DTT, and 1 mM EDTA. The homogenate was centrifuged for 10 min at 13,000 g in an Eppendorf microfuge, and a 3-mL aliquot of the supernatant fluid was passed at 4° C. through a BioRad Econo-Pac 10DG desalting column that had been pre-equilibrated in homogenization buffer lacking PMSF. Aliquots (0.1 mL) of the desalted crude extract were incubated at 25° C. with and without 3 units of the purified potato phosphatase. Samples were removed at 0, 2 and 19 h and analyzed by immunoblotting using the anti-(P-Tyr) IgG as described supra. Laser densitometric scanning and immunoquantification of the blots was performed as described supra.

[5] = 5 mM; PEP 0.25 mM; no effect = ±15% control activity
[6] = pH 5.8; read-out: Relative Activity
[7] = addition 5 mM; PEP 0.25 mM; control = 100%
[8] = purified potato phosphatase, assay B
[9] = pH 5.8, read-out: Relative Activity
[10] = addition 0.001 mM; PEP 0.25 mM; control = 100%

Molecule: [Cl-].[K+] [KCl]
- effect on enzyme activity (potato phosphatase [1]; [5]): no effect

Molecule: O=C(O)CN(CCOCCOCCN(CC(=O)O)CC(=O)O)CC(=O)O [EGTA]
- activity at 5000 µM (potato phosphatase [1]; [6]): 72%

Molecule: O=C1O[C@H]([C@@H](O)CO)C(O)=C1O [Ascorbate]
- activity at 5000 µM (potato phosphatase [1]; [6]): 12%

Molecule: [Mn+2] [Mn^2+]
- activation of the phosphatase (potato phosphatase [2]): about 30%

Molecule: N[C@@H](CC(=O)O)C(=O)O [Asparatate]
- Relative Activity (potato phosphatase [1]; [7]): 64%

Molecule: Nc1ncnc2c1ncn2[C@@H]1O[C@H](COP(=O)(O)OP(=O)(O)O)[C@@H](O)[C@H]1O [Mg-ADP]
- Vmax (potato phosphatase [3]; [8]): 46 units/mg

Molecule: [O]=[V]([O-])([O-])[O-] [Vanadate]
- effect on the phosphatase-caused decrease in protein P-Tyr content [4]: negated
- Relative Activity (potato phosphatase [1]; addition 0.005 mM; PEP 0.25 mM; control = 100%): 40%
- Relative Activity (potato phosphatase [1]; addition 0.05 mM; PEP 0.25 mM; control = 100%): 7%

Molecule: O=P(O)(O)OC1C(OP(=O)(O)O)C(OP(=O)(O)O)C(OP(=O)(O)O)C(OP(=O)(O)O)C1OP(=O)(O)O (stereo not drawn) [Phytate, the salt of 1,2,3,4,5,6-cyclohexanehexolphosphoric acid]
- activity at 100 µM (potato phosphatase [1]; [6]): 48%

Molecule: N[C@@H](CCC(=O)N[C@@H](CS)C(=O)NCC(=O)O)C(=O)O [GSH]
- activity at 5000 µM (potato phosphatase [1]; [9]): 131%

Molecule: [Cl-].[Na+] [NaCl]
- effect on enzyme activity (potato phosphatase [1]): no effect

Molecule: O=C(O)C(O)C(O)C(=O)O (stereo not drawn) [tartrate]
- effect on enzyme activity (potato phosphatase [1]; [5]): no effect

Molecule: O=P(O)(O)OP(=O)(O)O [PPi]
- Km (potato phosphatase [3]; apparent Km, purified potato phosphatase, assay B): 4.42 mM
- Vmax (potato phosphatase [3]; [8]): 1728 units/mg

Molecule: CCN1C(=O)C=CC1=O [N-ethylmaleimide]
- effect on enzyme activity after preincubation of enzyme (potato phosphatase [1]; 1 mM, preincubation up to 2 min at 25° C): no effect

Molecule: C[C@@H](OP(=O)(O)O)[C@H](N)C(=O)O [P-Tbr]
- Vmax (potato phosphatase [3]; [8]): 99 units/mg

Molecule: NC(CCC(=O)O)C(=O)O (stereo not drawn) [Glutaamate]
- activity at 5000 µM (potato phosphatase [1]; [6]): 30%

Molecule: O=C(O)CC(O)(CC(=O)O)C(=O)O [Mg-citrate]
- effect on enzyme activity (potato phosphatase [1]; [5]): no effect

Molecule: [F-].[Na+] [NaF]
- Relative Activity (potato phosphatase [1]; [7]): 56%

Molecule: C=C(OP(=O)(O)O)C(=O)O [PEP]
- Vmax (potato phosphatase [3]; [8]): 764 units/mg

Molecule: Nc1ncnc2c1ncn2[C@@H]1O[C@H](COP(=O)(O)O)[C@@H](O)[C@H]1O [AMP]
- activity of purified enzyme with compound as substrate (potato phosphatase [3]; assay B): little or no activity

Molecule: [Cl-].[Cl-].[Zn+2] [ZnCl2]
- inhibition of phosphatase activity (potato phosphatase [2]; 5 mM, in place of added Mg2+): completely inhibited

Molecule: Molybdate
- Relative Activity (potato phosphatase [1]; [10]): 40%
- Relative Activity (potato phosphatase [1]; addition 0.01 mM; PEP 0.25 mM; control = 100%): 7%
- Relative Activity (potato phosphatase [1]; addition 1 mM; PEP 0.25 mM; control = 100%): 0%

Molecule: C=C1[C@@H](O)[C@@H]2O[C@]3(CC[C@H](/C=C/[C@@H](C)[C@@H]4CC(C)=C[C@@]5(O[C@H](C[C@@](C)(O)C(=O)O)CC[C@H]5O)O4)O3)CC[C@H]2O[C@@H]1[C@@H](O)C[C@H](C)[C@H]1O[C@@]2(CCCCO2)CC[C@H]1C [okadaic acid]
- effect on enzyme activity (potato phosphatase [1]; 1 μM; PEP 0.25 mM; no effect = ±15% control activity): no effect

Molecule: [Ca+2] [Ca^2+]
- activation of the phosphatase (potato phosphatase [2]): about 30%

Molecule: O=C(O)CN(CCN(CC(=O)O)CC(=O)O)CC(=O)O [EDTA]
- activity at 5000 µM (potato phosphatase [1]; [9]): 32%
- inhibition at 5000 µM (potato phosphatase [2]; pH 5.8, read-out: reduction of activity): ~65%

Molecule: [Cl-].[Cl-].[Mg+2] [Mg^2+]
- activation of the phosphatase (potato phosphatase [2]): approximately 40%

Molecule: [Co+2] [Co^2+]
- activation of the phosphatase (potato phosphatase [2]): about 30%

Molecule: NH4 Cl
- effect on enzyme activity (potato phosphatase [1]; [5]): no effect

Molecule: O=P(O)(O)OC1O[C@H](CO)[C@@H](O)[C@H](O)[C@H]1O (stereo partly drawn) [Glc-1-P]
- activity of purified enzyme with compound as substrate (potato phosphatase [3]; assay B): little or no activity

B1: Phosvitin: egg yolk storage phosphoprotein (protein)
chain: AEFGTEPDAKTSSSSSSASSTATSSSSSSASSPNRKKPMDEEENDQVKQARNKDASSSSRSSKSSNSSKRSSSKSSNSSKRSSSSSSSSSSSSRSSSSSSSSSSNSKSSSSSSKSSSSSSRSRSSSKSSSSSSSSSSSSSSKSSSSRSSSSSSKSSSHHSHSHHSGHLNGSSSSSSSSRSVSHHSHEHHSGHLEDDSSSSSSSSVLSKIWGRHEIYQ
modifications: phosphoserine (Ser is the predominant phosphorylated amino acid of phosvitin)
notes: egg yolk storage phosphoprotein
- phosphoprotein phosphatase activity (potato phosphatase [3]; phosvitin at 50 μg/ml (125 .eta.M)): 220 units/mg
- Relative Activity (potato phosphatase [1]; [10]): 19%
